Experimental findings from patent publication US20230382925A1, “MODULATORS OF CYSTIC FIBROSIS TRANSMEMBRANE CONDUCTANCE REGULATOR” (VERTEX PHARMACEUTICALS INCORPORATED, priority 2020, published 2023) are described below.

This assay concerns the target CFTR (Homo sapiens, UniProt P13569). Put plainly: Membrane Potential Dye, Enteroid Assay B. Format: cell-based. The procedure: Base medium (ADF+++) consisted of Advanced […], 2 mM Glutamax, 10 mM HEPES, 1 μg/mL penicillin/streptomycin.
Intestinal enteroid maintenance medium (IEMMN) consisted of ADF+++, 1× B27 supplement, 1× N2 supplement, 1.25 mM N-acetyl cysteine, 10 mM Nicotinamide, 50 ng/mL hEGF, 10 nM Gastrin, 1 μg/mL hR-spondin-1, 100 ng/mL hNoggin, TGF-b type 1 inhibitor A-83-01, 100 μg/mL Primocin, 10 μM P38 MAPK inhibitor SB202190.
Bath 1 Buffer consisted of 1 mM MgCl2, 160 mM NaCl, 4.5 mM KCl, 10 mM HEPES, 10 mM Glucose, 2 mM CaCl2).
Chloride Free Buffer consisted of 1 mM Magnesium Gluconate, 2 mM Calcium Gluconate, 4.5 mM Potassium Gluconate, 160 mM Sodium Gluconate, 10 mM HEPES, 10 mM Glucose.
Bath 1 Dye Solution consisted of Bath 1 Buffer, 0.04% Pluronic F127, 20 μM Methyl Oxonol, 30 μM CaCCinh-A01, 30 μM Chicago Sky Blue.
Chloride Free Dye Solution consisted of Chloride Free Buffer, 0.04% Pluronic F127, 20 μM Methyl Oxonol, 30 μM CaCCinh-A01, 30 μM Chicago Sky Blue.
Chloride Free Dye Stimulation Solution consisted of Chloride Free Dye Solution, 10 μM forskolin, 100 μM IBMX, and 300 nM Compound III.
Human intestinal epithelial enteroid cells were obtained from the Hubrecht Institute for Developmental Biology and Stem Cell Research, Utrecht, The Netherlands and expanded in T-Flasks as previously described (Dekkers J F, Wiegerinck C L, de Jonge H R, Bronsveld I, Janssens H M, de Winter-de Groot K M, Brandsma A M, de Jong N W M, Bijvelds M J C, Scholte B J, Nieuwenhuis E E S, van den Brink S, Clevers H, van der Ent C K, Middendorp S and M Beekman J M. A functional CFTR assay using primary cystic fibrosis intestinal organoids. Nat Med. 2013 July; 19(7):939-45.).
3. Enteroid Cell Harvesting and Seeding
Cells were recovered in cell recovery solution, collected by centrifugation at 650 rpm for 5 min at 4° C., resuspended in TrypLE and incubated for 5 min at 37° C. Cells were then collected by centrifugation at 650 rpm for 5 min at 4° C. and resuspended in IEMM containing 10 μM ROCK inhibitor (RI). The cell suspension was passed through a 40 μm cell strainer and resuspended at 1×10^6 cells/mL in IEMM containing 10 μM RI. Cells were seeded at 5000 cells/well into multi-well plates and incubated for overnight at 37° C., 95% humidity and 5% CO2 prior to assay.
5. Membrane Potential Dye, Enteroid Assay B
Enteroid cells were incubated with test compound in IEMM for 18-24 hours at 37° C., 95% humidity and 5% CO2. […] Briefly, cells were washed 5 times in Bath 1 Buffer. Bath 1 Dye Solution was added and the cells were incubated for 25 min at room temperature. Following dye incubation, cells were washed 3 times in Chloride Free Dye Solution. Chloride transport was initiated by addition of Chloride Free Dye Stimulation Solution and the fluorescence signal was read for 15 min. […] Chloride transport was then expressed as a percentage of the chloride transport following treatment with 1 μM (14S)-8-[3-(2-{Dispiro[2.0.2.1]heptan-7-yl}ethoxy)-1H-pyrazol-1-yl]-12,12-dimethyl-2λ^6-thia-3,9,11,18,23-pentaazatetracyclo[17.3.1.111,14.05,10]tetracosa-1(22),5,7,9,19(23),20-hexaene-2,2,4-trione, 3 μM (R)-1-(2,2-difluorobenzo[d][1,3]dioxol-5-yl)-N-(1-(2,3-dihydroxypropyl)-6-fluoro-2-(1-hydroxy-2-methylpropan-2-yl)-1H-indol-5-yl)cyclopropanecarboxamide and 300 nM acute N-[2,4-bis(1,1-dimethylethyl)-5-hydroxyphenyl]-1,4-dihydro-4-oxoquinoline-3-carboxamide triple combination control (% Activity).

Where [1] appears, read: Table 10, read-out: Ent. B EC50.

Read-outs that look alike come from different tables or passages of the source. Bounds are passed on as bounds.

CFTR, sequence (P13569 with tags, fused parts or gaps DEL508-508): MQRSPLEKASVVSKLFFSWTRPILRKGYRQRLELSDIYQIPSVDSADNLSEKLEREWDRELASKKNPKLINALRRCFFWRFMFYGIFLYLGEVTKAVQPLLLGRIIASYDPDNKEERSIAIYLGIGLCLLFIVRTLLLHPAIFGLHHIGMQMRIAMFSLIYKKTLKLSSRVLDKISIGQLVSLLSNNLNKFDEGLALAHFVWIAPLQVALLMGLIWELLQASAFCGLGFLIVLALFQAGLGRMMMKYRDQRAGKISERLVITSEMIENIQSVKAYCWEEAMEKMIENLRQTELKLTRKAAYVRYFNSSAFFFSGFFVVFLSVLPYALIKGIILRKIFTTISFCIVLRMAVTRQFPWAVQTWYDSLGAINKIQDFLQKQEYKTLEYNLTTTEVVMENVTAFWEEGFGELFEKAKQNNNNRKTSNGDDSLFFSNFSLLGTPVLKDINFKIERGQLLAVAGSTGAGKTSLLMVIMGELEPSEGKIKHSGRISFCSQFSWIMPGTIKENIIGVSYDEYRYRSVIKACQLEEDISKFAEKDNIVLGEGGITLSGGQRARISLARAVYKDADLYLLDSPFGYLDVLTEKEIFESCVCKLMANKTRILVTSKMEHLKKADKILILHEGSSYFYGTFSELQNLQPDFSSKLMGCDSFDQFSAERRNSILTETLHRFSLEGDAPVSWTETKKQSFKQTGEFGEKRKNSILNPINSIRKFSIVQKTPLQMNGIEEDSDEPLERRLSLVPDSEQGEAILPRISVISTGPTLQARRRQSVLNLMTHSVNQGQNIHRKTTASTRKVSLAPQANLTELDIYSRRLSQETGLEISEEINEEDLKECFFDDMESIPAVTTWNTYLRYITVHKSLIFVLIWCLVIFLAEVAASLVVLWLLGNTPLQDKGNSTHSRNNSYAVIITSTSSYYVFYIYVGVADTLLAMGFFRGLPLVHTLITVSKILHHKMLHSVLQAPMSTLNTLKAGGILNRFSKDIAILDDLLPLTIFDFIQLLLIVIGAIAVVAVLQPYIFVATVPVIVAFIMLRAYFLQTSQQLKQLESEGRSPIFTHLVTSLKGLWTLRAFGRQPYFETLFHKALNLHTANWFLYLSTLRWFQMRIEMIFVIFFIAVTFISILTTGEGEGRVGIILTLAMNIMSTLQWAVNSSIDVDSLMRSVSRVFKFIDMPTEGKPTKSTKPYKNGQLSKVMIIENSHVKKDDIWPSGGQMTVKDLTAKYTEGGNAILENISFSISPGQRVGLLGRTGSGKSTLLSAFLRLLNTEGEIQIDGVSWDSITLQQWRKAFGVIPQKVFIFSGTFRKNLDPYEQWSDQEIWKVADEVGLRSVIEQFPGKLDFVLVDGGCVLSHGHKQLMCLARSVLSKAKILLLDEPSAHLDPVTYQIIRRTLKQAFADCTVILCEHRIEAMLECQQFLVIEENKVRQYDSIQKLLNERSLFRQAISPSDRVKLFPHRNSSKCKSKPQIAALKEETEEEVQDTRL

`Cc1cccc(C)c1-c1cc2nc(n1)NS(=O)(=O)c1cccc(c1)C(=O)N([C@@H]1CC[C@@H]1C1CC1)[C@H](CC(C)(C)C)CO2` (racemic) [Compound 149, (11R)-12-(2-Cyclopropylcyclobutyl)-6-(2,6-dimethylphenyl)-11-(2,2-dimethylpropyl)-2,2-dioxo-9-oxa-2λ^6-thia-3,5,12,19-tetrazatricyclo[12.3.1.14,8]nonadeca-1(18),4(19),5,7,14,16-hexaen-13-one]: the “Ent. B Max Activity (%)” value (Table 10) is reported as “+++ (+++ is >60%)”. The EC50 under setting [1] is under 1 µM.

In the case of `[H][C@]1(N2C(=O)c3cccc(c3)S(=O)(=O)Nc3nc(cc(-c4c(C)cccc4C)n3)OC[C@H]2CCC(C)C)C[C@@]2(C[C@H](C(C)(C)O)C2)C1` (single isomer, unassigned) [Compound 4], under “Table 10”, the “Ent. B Max Activity (%)” value is reported as “+++ (+++ is >60%)”. For the same molecule, the EC50 under setting [1] was under 1 µM.

For the molecule `[H][C@]1(N2C(=O)c3cccc(c3)S(=O)(=O)Nc3nc(cc(-c4c(C)cccc4C)n3)OC[C@H]2CCC(C)C)C[C@@]2(C[C@H](C(C)(C)O)C2)C1` (single isomer, unassigned) [Compound 5], the “Ent. B Max Activity (%)” value (Table 10) was “+++ (+++ is >60%)”. In addition, the EC50 under setting [1] is under 1 µM.

Consider `Cc1cccc(C)c1-c1cc2nc(n1)NS(=O)(=O)c1cccc(c1)C(=O)N(C1CC3(C1)CC(C(C)(C)O)C3)[C@H](CCC(C)(C)C)CO2` (single isomer, unassigned) [Compound 8], for which the “Ent. B Max Activity (%)” value (Table 10) was “+++ (+++ is >60%)”. Besides, the concentration giving a half-maximal response (EC50) under setting [1] was under 1 µM.

`Cc1cccc(C)c1-c1cc2nc(n1)NS(=O)(=O)c1cccc(c1)C(=O)N(C1CC3(C1)CC(C(C)(C)O)C3)[C@H](CCC(C)(C)C)CO2` (single isomer, unassigned) [Compound 9]: the “Ent. B Max Activity (%)” value (Table 10) was “+++ (+++ is >60%)”. Also, the EC50 under setting [1] was under 1 µM.

Take `Cc1cccc(C)c1-c1cc2nc(n1)NS(=O)(=O)c1cccc(c1)C(=O)N(C1CCN(C(=O)OC(C)C)C1)[C@H](CC(C)C)CO2` (single isomer, unassigned) [Compound 38]: the “Ent. B Max Activity (%)” value was “++ (++ is 30-60%)”. Also, the EC50 (read-out: Ent. B EC50) was under 1 µM.

For `Cc1cccc(C)c1-c1cc2nc(n1)NS(=O)(=O)c1cccc(c1)C(=O)N(C1CCN(C(=O)OC(C)C)C1)[C@H](CC(C)C)CO2` (single isomer, unassigned) [Compound 39], the “Ent. B Max Activity (%)” value is “+++ (+++ is >60%)”. The EC50 (read-out: Ent. B EC50) is under 1 µM.

For `Cc1cccc(C)c1-c1cc2nc(n1)NS(=O)(=O)c1cccc(c1)C(=O)N([C@H]1C[C@@H](OC(C)C)C1)[C@H](CC(C)C)CO2` (single isomer, unassigned) [Compound 45], the “Ent. B Max Activity (%)” value (Table 9) is “+++ (+++ is >60%)”. Where the note is “Table 9, read-out: Ent. B EC50”, the EC50 is under 1 µM.

On to `Cc1cccc(C)c1-c1cc2nc(n1)NS(=O)(=O)c1cccc(c1)C(=O)N([C@H]1C[C@@H](OC(C)C)C1)[C@H](CC(C)C)CO2` (single isomer, unassigned) [Compound 46], for which the “Ent. B Max Activity (%)” value (Table 9) is recorded as “+++ (+++ is >60%)”. Further, the EC50 (Table 9, read-out: Ent. B EC50) is under 1 µM.

On to `COC(=O)NC1CC(N2C(=O)c3cccc(c3)S(=O)(=O)Nc3nc(cc(-c4c(C)cccc4C)n3)OC[C@H]2CC2(C(F)(F)F)CC2)C1` (single isomer, unassigned) [Compound 53], for which the “Ent. B Max Activity (%)” value (Table 9) is “+++ (+++ is >60%)”. The EC50 (Table 9, read-out: Ent. B EC50) is under 1 µM.

For `Cc1cccc(C)c1-c1cc2nc(n1)NS(=O)(=O)c1cccc(c1)C(=O)N([C@H]1C[C@@H](NC(=O)OC(C)(C)C)C1)[C@H](CC1(C(F)(F)F)CC1)CO2` (single isomer, unassigned) [Compound 54], the “Ent. B Max Activity (%)” value (Table 9) is on record as “+++ (+++ is >60%)”. In addition, where the note is “Table 9, read-out: Ent. B EC50”, the concentration giving a half-maximal response (EC50) was under 1 µM.

Consider `Cc1cccc(C)c1-c1cc2nc(n1)NS(=O)(=O)c1cccc(c1)C(=O)N([C@H]1C[C@@H](NC(=O)OC(C)(C)C)C1)[C@H](CC1(C(F)(F)F)CC1)CO2` (single isomer, unassigned) [Compound 55], for which the “Ent. B Max Activity (%)” value (Table 9) is recorded as “+++ (+++ is >60%)”. Besides, the EC50 (Table 9, read-out: Ent. B EC50) is under 1 µM.

On to `Cc1cccc(C)c1-c1cc2nc(n1)NS(=O)(=O)c1cccc(c1)C(=O)N([C@H]1C[C@@H](N)C1)[C@H](CC1(C(F)(F)F)CC1)CO2` (single isomer, unassigned) [Compound 56], for which the “Ent. B Max Activity (%)” value (Table 9) was “+++ (+++ is >60%)”. For the same molecule, under “Table 9, read-out: Ent. B EC50”, the EC50 is under 1 µM.

For `Cc1cccc(C)c1-c1cc2nc(n1)NS(=O)(=O)c1cccc(c1)C(=O)N([C@H]1C[C@H](N)C1)[C@H](CC1(C(F)(F)F)CC1)CO2` (single isomer, unassigned) [Compound 57], the “Ent. B Max Activity (%)” value (Table 9) is recorded as “+++ (+++ is >60%)”. For the same molecule, the EC50 (Table 9, read-out: Ent. B EC50) is under 1 µM.

For the molecule `COC(=O)NC1CC(N2C(=O)c3cccc(c3)S(=O)(=O)Nc3nc(cc(-c4c(C)cccc4C)n3)OC[C@H]2CC2(C(F)(F)F)CC2)C1` (single isomer, unassigned) [Compound 58], the “Ent. B Max Activity (%)” value (Table 9) is on record as “+++ (+++ is >60%)”. Also, where the note is “Table 9, read-out: Ent. B EC50”, the EC50 is under 1 µM.

Consider `Cc1cccc(C)c1-c1cc2nc(n1)NS(=O)(=O)c1cccc(c1)C(=O)N(C1CC(NC(=O)OC(C)C)C1)[C@H](CC1(C(F)(F)F)CC1)CO2` (single isomer, unassigned) [Compound 59], for which the “Ent. B Max Activity (%)” value (Table 9) is “+++ (+++ is >60%)”. The EC50 (Table 9, read-out: Ent. B EC50) is under 1 µM.

Turning to `Cc1cccc(C)c1-c1cc2nc(n1)NS(=O)(=O)c1cccc(c1)C(=O)N(C1CC(NC(=O)OC(C)C)C1)[C@H](CC1(C(F)(F)F)CC1)CO2` (single isomer, unassigned) [Compound 60], the “Ent. B Max Activity (%)” value (Table 9) is listed as “+++ (+++ is >60%)”. Further, the EC50 (Table 9, read-out: Ent. B EC50) was under 1 µM.

As to `Cc1cccc(C)c1-c1cc2nc(n1)NS(=O)(=O)c1cccc(c1)C(=O)N(C1CC(N(C)C)C1)[C@H](CC1(C(F)(F)F)CC1)CO2` (single isomer, unassigned) [Compound 61], the “Ent. B Max Activity (%)” value (Table 10) is recorded as “+++ (+++ is >60%)”. The EC50 under setting [1] is under 1 µM.

Regarding `Cc1cccc(C)c1-c1cc2nc(n1)NS(=O)(=O)c1cccc(c1)C(=O)N([C@H]1C[C@@H](NC(=O)OC(C)C)C1)[C@H](CC(C)C)CO2` (single isomer, unassigned) [Compound 63], the “Ent. B Max Activity (%)” value was “+++ (+++ is >60%)”. Besides, the EC50 (read-out: Ent. B EC50) is under 1 µM.

`Cc1cccc(C)c1-c1cc2nc(n1)NS(=O)(=O)c1cccc(c1)C(=O)N([C@H]1C[C@@H](NC(=O)OC(C)C)C1)[C@H](CC(C)C)CO2` (single isomer, unassigned) [Compound 64]: the “Ent. B Max Activity (%)” value was “+++ (+++ is >60%)”. Where the note is “read-out: Ent. B EC50”, the EC50 is under 1 µM.

For `COC(=O)NC1CC2(C1)CC(N1C(=O)c3cccc(c3)S(=O)(=O)Nc3nc(cc(-c4c(C)cccc4C)n3)OC[C@H]1CC(C)(C)C(F)(F)F)C2` (single isomer, unassigned) [Compound 75], the “Ent. B Max Activity (%)” value (Table 9) is reported as “+++ (+++ is >60%)”. Besides, for the setting “Table 9, read-out: Ent. B EC50”, the EC50 is under 1 µM.

Consider `COC(=O)NC1CC2(C1)CC(N1C(=O)c3cccc(c3)S(=O)(=O)Nc3nc(cc(-c4c(C)cccc4C)n3)OC[C@H]1CC(C)(C)C(F)(F)F)C2` (single isomer, unassigned) [Compound 76], for which, where the note is “Table 9”, the “Ent. B Max Activity (%)” value is recorded as “+++ (+++ is >60%)”. The EC50 (Table 9, read-out: Ent. B EC50) is under 1 µM.

As for `COC(=O)NC1CC2(C1)CC(N1C(=O)c3cccc(c3)S(=O)(=O)Nc3nc(cc(-c4c(C)cccc4C)n3)OC[C@H]1CC(C)(C)C)C2` (single isomer, unassigned) [Compound 91], the “Ent. B Max Activity (%)” value (Table 9) was “+++ (+++ is >60%)”. Besides, the concentration giving a half-maximal response (EC50) (Table 9, read-out: Ent. B EC50) is under 1 µM.

Broadly, the EC50 is the concentration at which the effect is half-maximal.
